{
  "source": "patent US20160038439A1",
  "about": "“Use of 7-a-[9-(4,4,5,5,5-pentafluoropentylsulfinyl)nonyl]-estra-1,3,5(10)- triene-3,17B-diol and derivatives thereof” (XI'ANLIBANG PHARMACEUTICAL TECHNOLOGY CO., LTD., priority 2013, published 2016)",
  "key": {"[1]": {"tested_on": "chicken type II collagen-induced arthritis model in SD rats", "assay": "Thickness of right hindfoot ankle joint by microcalliper, collagen-induced arthritis rats", "type": "in vivo", "method": "(§1) After inflamed model was successfully established in SD rats, the SD rats were randomly divided into model control group (12 rats), low, medium dose group (8 rats for each), and high dose group (12 rats) of test drug depending on body weight. Rats in the model control group were administered a blank fat emulsion injection (0.5 mL) by tail vein injection every other day for 7 days; rats in the low and medium dose group of test drug were administered a fat emulsion injection of a compound of Formula A (specifically including Compounds I-VI described hereafter) by tail vein injection every other day for 7 days; rats in the high dose group of test drug were administered a fat emulsion injection of a compound of Formula A by tail vein injection every other day for 14 days. 12 same models in the normal control group were also administered a blank fat emulsion injection. Indexes such as hindfoot joint score, hindfoot joint thickness measurement, TNF-α level in serum and hindfoot joint tissues, hindfoot joint pathological section and the like were used to evaluate efficacy of the drug.\n(§2) Chicken type II collagen was dissolved in 0.1 mol/L acetic acid at 4° C. while stirring so as to be thoroughly dissolved at a concentration of 2 mg/mL The resulting solution was put into a refrigerator at 4° C. overnight. Liquid paraffin and lanolin were mixed at a ratio of 2:1 (volume ratio), and the mixture was autoclaved to prepare an incomplete Freund's adjuvant (IFA). Bacillus Calmette Guerin (BCG) vaccine (60 mg) was inactivated at 80° C. for 1 hour and transferred to a mortar, into which was dropwise added IFA. After being uniformly grinded, the resulting mixture was pushed and sucked repeatedly by double-syringe to prepare a complete Freund's adjuvant (CFA), with the final concentration of BCG vaccine being 2 mg/mL. An equal amount of chicken type II collagen acid solution was mixed with CFA into a stable emulsion (containing 1 mg chicken type II collagen per milliliter).\n(§3) 12 female SD rats were randomly selected from 192 female SD rats as normal control group. The remaining 180 rats was disinfected with iodine tincture. After being deiodinated with 75% ethanol, each of the rat was administered 150 μL collagen emulsion by intradermal injection at the base of the tail, and was administered 100 μL collagen emulsion by intradermal injection at the vola pedis of right hindfoot. Thus, totally 250 μL for each rat was administered. 7 days later, an equal amount of collagen emulsion was intraperitoneal injected as a secondary immune.\n(§4) Animal grouping and administration: inflamed rats were divided into model control group, low, medium and high dose groups of test drug based on body weight.\n(§5) Rats in each group were scored for the hindfoot joint and measured for the thickness of ankle joint before being inflamed. Normal rats were taken blood from orbital venous plexus. The serum of the blood was separated out and cryopreserved at −20° C. to detect cytokines. Rats were scored for joint after being inflamed for 3 days, and were measured for the thickness of ankle joint before administration (on the 19th day since being inflamed), on the 3rd day and 8th day after administration (on the […] since being inflamed). Rats in each group were taken blood from orbital venous plexus when inflammation was severe (on the 23rd day after being inflamed). The serum of the blood was separated out and cryopreserved at −20° C. 8 rats for each group were sacrificed on the 28th day after being inflamed and were taken blood from intraperitoneal vein. The serum of the blood was separated out and was subjected to serological detection (TNF-α). The rest of rats were sacrificed on the 35th day after being inflamed, and histology index detection was carried out"}, "[2]": {"tested_on": "TNF-α", "assay": "TNF-α level in hindfoot ankle joint tissue of rats with arthritis", "type": "in vivo, SD rats", "method": "as §1\n(§6) Compound I used in the present invention was purchased from Xi′ an Libang Pharmaceutical Co., Ltd.; Compounds II-IV were synthesized by the following method. SD rats used in the present invention were purchased from Super-B&K Laboratory Animal Corp. Ltd.; chicken type II collagen was purchased from Sigma, Lot No. 87H5227; rat tumor necrosis factor-α [TNF-α] enzyme-linked immunoassay kit (ELISA) was purchased from Shanghai Biovol Biotech Co., Ltd., Lot No. BV-E12102201.\nas §2, §3, §4\nas §5, with “8 rats for each group were sacrificed on the 28th day after being inflamed and were taken blood from intraperitoneal vein. The serum of the blood was separated out and was subjected to serological detection (TNF-α). The rest of rats were sacrificed on the 35th day after being inflamed, and histology index detection was carried out” left out"}, "[3]": {"tested_on": "chicken type II collagen-induced arthritis model in SD rats", "assay": "Hindfoot joint score in chicken type II collagen-induced arthritis model in SD rats", "type": "in vivo", "parameters": "scale not given here", "details": "tail vein, every other day", "method": "as §1, §2, §3, §4, §5"}, "[4]": {"tested_on": "TNF-α", "assay": "TNF-α level in serum of rats with arthritis (ELISA)", "type": "in vivo, SD rats", "method": "as §1, §6, §2, §3, §4\nas §5, with “8 rats for each group were sacrificed on the 28th day after being inflamed and were taken blood from intraperitoneal vein. The serum of the blood was separated out and was subjected to serological detection (TNF-α). The rest of rats were sacrificed on the 35th day after being inflamed, and histology index detection was carried out” left out"}, "[5]": {"tested_on": "chicken type II collagen-induced arthritis model in SD rats", "assay": "Pathological examination score of hindfoot ankle joint of rats with arthritis", "type": "in vivo", "details": "high dose group (1.40-2.16 mg/kg per compound), every other day for 14 days, n=4", "method": "as §1, §2\nas §3, with “Thus, totally 250 μL for each rat was administered. 7 days later, an equal amount of collagen emulsion was intraperitoneal injected as a secondary immune.” left out\nRats in each group were scored for the hindfoot joint and measured for the thickness of ankle joint before being inflamed. […] Rats were scored for joint after being inflamed for 3 days, and were measured for the thickness of ankle joint before administration (on the 19th day since being inflamed), on the 3rd day and 8th day after administration (on the 20th day since being inflamed). […]"}, "[6]": {"details": "high dose group, before administration (baseline)"}, "[7]": {"details": "high dose group, the 3rd day after administration"}, "[8]": {"details": "high dose group, the 8th day after administration"}, "[9]": {"details": "low dose group, before administration (baseline)"}, "[10]": {"details": "low dose group, the 3rd day after administration"}, "[11]": {"details": "low dose group, the 8th day after administration"}, "[12]": {"details": "medium dose group, before administration (baseline)"}, "[13]": {"details": "medium dose group, the 3rd day after administration"}, "[14]": {"details": "medium dose group, the 8th day after administration"}},
  "note": "Marks after values point to notes of the source that are not given here.",
  "data": [
    {"substance": "7-α-[9-(4,4,5,5,5-pentafluoropentylsulfinyl)nonyl]-estra-1,3,5(10)-triene-3-hydroxyl-17-docosanoyl [Compound III]", "values": [
      {"measurement": "Thickness of ankle joint (mean ± SD)", "setting": "[1]; [6]", "result": "6.59 ± 0.44", "unit": "mm"},
      {"measurement": "Thickness of ankle joint (mean ± SD)", "setting": "[1]; [7]", "result": "6.55 ± 0.56", "unit": "mm"},
      {"measurement": "Thickness of ankle joint (mean ± SD)", "setting": "[1]; [8]", "result": "6.31 ± 0.69", "unit": "mm"},
      {"measurement": "Thickness of ankle joint (mean ± SD)", "setting": "[1]; [9]", "result": "5.94 ± 0.52", "unit": "mm"},
      {"measurement": "Thickness of ankle joint (mean ± SD)", "setting": "[1]; [10]", "result": "6.22 ± 0.38", "unit": "mm"},
      {"measurement": "Thickness of ankle joint (mean ± SD)", "setting": "[1]; [11]", "result": "6.06 ± 0.29", "unit": "mm"},
      {"measurement": "Thickness of ankle joint (mean ± SD)", "setting": "[1]; [12]", "result": "6.33 ± 0.52", "unit": "mm"},
      {"measurement": "Thickness of ankle joint (mean ± SD)", "setting": "[1]; [13]", "result": "6.45 ± 0.53", "unit": "mm"},
      {"measurement": "Thickness of ankle joint (mean ± SD)", "setting": "[1]; [14]", "result": "6.36 ± 0.46", "unit": "mm"},
      {"measurement": "TNF-α level in ankle (mean ± SD)", "setting": "[2]; left ankle joint, high dose group", "result": "11.05 ± 3.96", "unit": "pg/mL"},
      {"measurement": "TNF-α level in ankle (mean ± SD)", "setting": "[2]; left ankle joint, low dose group", "result": "12.93 ± 4.15", "unit": "pg/mL"},
      {"measurement": "TNF-α level in ankle (mean ± SD)", "setting": "[2]; left ankle joint, medium dose group", "result": "13.62 ± 3.42", "unit": "pg/mL"},
      {"measurement": "TNF-α level in ankle (mean ± SD)", "setting": "[2]; right ankle joint, high dose group", "result": "13.85 ± 3.38", "unit": "pg/mL"},
      {"measurement": "TNF-α level in ankle (mean ± SD)", "setting": "[2]; right ankle joint, low dose group", "result": "14.13 ± 4.20", "unit": "pg/mL"},
      {"measurement": "TNF-α level in ankle (mean ± SD)", "setting": "[2]; right ankle joint, medium dose group", "result": "12.02 ± 5.91", "unit": "pg/mL"},
      {"measurement": "Mean value of hindfoot joint score", "setting": "[3]; [6]", "result": 5.4},
      {"measurement": "Mean value of hindfoot joint score", "setting": "[3]; [7]", "result": "4.8**^#"},
      {"measurement": "Mean value of hindfoot joint score", "setting": "[3]; [8]", "result": 5.6},
      {"measurement": "Mean value of hindfoot joint score", "setting": "[3]; [9]", "result": 4.5},
      {"measurement": "Mean value of hindfoot joint score", "setting": "[3]; [10]", "result": "5.3**^##"},
      {"measurement": "Mean value of hindfoot joint score", "setting": "[3]; [11]", "result": 5},
      {"measurement": "Mean value of hindfoot joint score", "setting": "[3]; [12]", "result": 5},
      {"measurement": "Mean value of hindfoot joint score", "setting": "[3]; [13]", "result": "4.8**"},
      {"measurement": "Mean value of hindfoot joint score", "setting": "[3]; [14]", "result": 5.4},
      {"measurement": "TNF-α level in serum (mean ± SD)", "setting": "[4]; [7]", "result": "16.53 ± 15.71", "unit": "pg/mL"},
      {"measurement": "TNF-α level in serum (mean ± SD)", "setting": "[4]; [8]", "result": "10.36 ± 7.08", "unit": "pg/mL"},
      {"measurement": "TNF-α level in serum (mean ± SD)", "setting": "[4]; [10]", "result": "81.94 ± 141.25", "unit": "pg/mL"},
      {"measurement": "TNF-α level in serum (mean ± SD)", "setting": "[4]; [11]", "result": "157.89 ± 248.01", "unit": "pg/mL"},
      {"measurement": "TNF-α level in serum (mean ± SD)", "setting": "[4]; [13]", "result": "12.31 ± 17.56", "unit": "pg/mL"},
      {"measurement": "TNF-α level in serum (mean ± SD)", "setting": "[4]; [14]", "result": "39.56 ± 29.29", "unit": "pg/mL"},
      {"measurement": "Joint lesion score (mean ± SD)", "setting": "[5]", "result": "1.50 ± 1.91"}
    ]}
  ]
}
